# Laboratory results from ChEMBL document CHEMBL1201862, “PubChem BioAssay data set” (2004).
# Active and inactive are the calls of the source.
# Key:
# [1] = biological target: Eukaryotic translation initiation factor 4H (Homo sapiens, UniProt Q15056); assay: inhibitors of translation initiation factor eIF4H – SAR follow-up (AID 435011); format: functional
# [2] = biological target: Polyadenylate-binding protein 1 (Homo sapiens, UniProt P11940); assay: PABP inhibition in translation initiation, SAR follow-up (AID 435018); format: functional
# [3] = biological target: T1, Heat shock factor protein 1 (Mus musculus, UniProt P38532); assay: decrease of HSF1-responsive luciferase luminescence – cell-based, NIH3T3, dose retest, confirmation (AID 2382); format: functional;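 also: NIH3T3 fibroblasts with HSF1-driven luciferase reporter stressed by proteasome inhibitor MG132; luminescence from HSF1-driven luciferase expression after 8 hours of MG132 stress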
# T1 sequence (P38532 whole entry): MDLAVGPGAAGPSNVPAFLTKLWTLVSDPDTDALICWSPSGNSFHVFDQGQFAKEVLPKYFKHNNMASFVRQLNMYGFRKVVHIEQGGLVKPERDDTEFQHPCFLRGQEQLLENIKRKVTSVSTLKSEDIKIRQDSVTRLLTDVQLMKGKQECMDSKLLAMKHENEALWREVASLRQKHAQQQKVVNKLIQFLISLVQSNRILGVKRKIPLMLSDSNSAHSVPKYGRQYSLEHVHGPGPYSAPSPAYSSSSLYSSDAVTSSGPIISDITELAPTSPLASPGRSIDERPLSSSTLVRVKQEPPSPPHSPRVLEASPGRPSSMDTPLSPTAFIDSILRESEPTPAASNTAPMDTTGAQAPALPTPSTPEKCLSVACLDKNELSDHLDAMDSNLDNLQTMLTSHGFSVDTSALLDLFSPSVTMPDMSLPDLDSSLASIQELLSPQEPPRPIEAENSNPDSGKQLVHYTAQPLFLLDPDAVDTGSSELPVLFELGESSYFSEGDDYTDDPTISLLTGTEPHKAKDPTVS
# [4] = biological target: T2, Mannose-6-phosphate isomerase (Homo sapiens, UniProt P34949); assay: phosphomannose isomerase inhibition – biochemical, fluorescence intensity, confirmation (AID 1535)
# T2 sequence (P34949 whole entry): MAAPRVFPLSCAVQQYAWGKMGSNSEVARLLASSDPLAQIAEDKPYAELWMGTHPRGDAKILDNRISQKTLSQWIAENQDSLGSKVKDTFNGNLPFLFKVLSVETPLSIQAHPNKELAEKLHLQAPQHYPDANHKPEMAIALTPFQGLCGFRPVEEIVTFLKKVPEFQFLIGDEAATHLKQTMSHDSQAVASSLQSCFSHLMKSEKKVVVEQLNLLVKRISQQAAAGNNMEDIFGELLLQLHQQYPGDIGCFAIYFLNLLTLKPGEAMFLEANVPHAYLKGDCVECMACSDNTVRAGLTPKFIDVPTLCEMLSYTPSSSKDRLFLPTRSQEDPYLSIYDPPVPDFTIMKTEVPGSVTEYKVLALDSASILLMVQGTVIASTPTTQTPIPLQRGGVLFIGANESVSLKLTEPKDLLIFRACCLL
# Phosphomannomutase 2 = Phosphomannomutase 2 (Homo sapiens, UniProt O15305); assay: Counter screen SAR assay for PMM2 inhibitors via a fluorescence intensity assay. [Related pubchem assays (depositor defined):AID1545, AID1574]
# [5] = biological target: T2, Mannose-6-phosphate isomerase; assay: MPI enzyme activity inhibition – biochemical, fluorescence intensity, coupled assay, primary screen (AID 1209)
# [6] = biological target: T3, Dual specificity protein phosphatase 3 (Homo sapiens, UniProt P51452); assay: VHR phosphatase inhibition, dose response, selectivity assay for STEP inhibitor project, biochemical (AID 602374); format: functional; details: read-out: IC50_Mean
# [7] = biological target: T4, Tyrosine-protein phosphatase non-receptor type 22 (Homo sapiens, UniProt Q9Y2R2); assay: lymphoid phosphatase LYP inhibitors – biochemical, selectivity assay for STEP inhibitor project, dose response (AID 624241); format: functional
# T4 sequence (Q9Y2R2 whole entry): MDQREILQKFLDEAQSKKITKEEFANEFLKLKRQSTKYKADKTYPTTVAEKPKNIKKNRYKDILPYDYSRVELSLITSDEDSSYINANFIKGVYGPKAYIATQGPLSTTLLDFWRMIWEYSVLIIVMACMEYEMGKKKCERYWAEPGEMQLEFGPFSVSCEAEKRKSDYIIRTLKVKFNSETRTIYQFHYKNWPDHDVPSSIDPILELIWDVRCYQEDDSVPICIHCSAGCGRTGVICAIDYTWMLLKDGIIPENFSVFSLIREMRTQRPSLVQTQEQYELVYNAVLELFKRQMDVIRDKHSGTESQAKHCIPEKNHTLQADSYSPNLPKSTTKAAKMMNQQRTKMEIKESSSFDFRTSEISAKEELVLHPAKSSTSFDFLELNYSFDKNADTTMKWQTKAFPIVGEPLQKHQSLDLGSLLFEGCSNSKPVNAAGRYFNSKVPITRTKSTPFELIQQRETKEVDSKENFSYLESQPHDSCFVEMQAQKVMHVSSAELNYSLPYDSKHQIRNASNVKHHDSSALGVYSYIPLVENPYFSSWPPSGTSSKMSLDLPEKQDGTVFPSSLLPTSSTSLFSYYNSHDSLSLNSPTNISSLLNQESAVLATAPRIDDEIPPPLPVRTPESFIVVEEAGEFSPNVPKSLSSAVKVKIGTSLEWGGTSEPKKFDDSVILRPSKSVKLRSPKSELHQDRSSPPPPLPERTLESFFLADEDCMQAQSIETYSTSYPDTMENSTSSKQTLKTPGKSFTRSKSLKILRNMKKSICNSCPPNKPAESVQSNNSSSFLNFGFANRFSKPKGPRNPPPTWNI
# [8] = biological target: T3, Dual specificity protein phosphatase 3; assay: VHR1 phosphatase inhibitors, primary screen, biochemical, absorbance, uHTS (AID 1654)
# [9] = biological target: T5, Tyrosine-protein phosphatase non-receptor type 11 (Homo sapiens, UniProt Q06124); assay: PTPN11 enzyme inhibitors – biochemical, selectivity assay for STEP inhibitor project, dose response (AID 602367); format: functional; details: read-out: IC50_Mean
# T5 sequence (Q06124 whole entry): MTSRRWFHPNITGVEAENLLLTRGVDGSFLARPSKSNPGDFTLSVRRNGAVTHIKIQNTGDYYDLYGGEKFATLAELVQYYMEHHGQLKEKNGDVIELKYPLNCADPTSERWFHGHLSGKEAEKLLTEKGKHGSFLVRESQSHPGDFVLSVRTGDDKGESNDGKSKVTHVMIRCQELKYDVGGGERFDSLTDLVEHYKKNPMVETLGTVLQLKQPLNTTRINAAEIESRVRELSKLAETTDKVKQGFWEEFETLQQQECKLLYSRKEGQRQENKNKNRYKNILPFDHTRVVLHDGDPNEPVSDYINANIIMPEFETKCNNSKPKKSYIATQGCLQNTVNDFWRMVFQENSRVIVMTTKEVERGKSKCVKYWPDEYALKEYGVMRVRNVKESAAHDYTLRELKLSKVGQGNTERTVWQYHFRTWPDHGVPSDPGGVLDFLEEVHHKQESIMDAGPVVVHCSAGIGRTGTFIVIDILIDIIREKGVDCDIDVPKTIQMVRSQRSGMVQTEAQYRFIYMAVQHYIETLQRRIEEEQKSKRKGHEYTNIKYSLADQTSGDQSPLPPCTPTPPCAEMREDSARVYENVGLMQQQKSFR
# [10] = biological target: Envelope glycoprotein gp160 (Human immunodeficiency virus 1, UniProt Q6QLK5); assay: cell-free HIV fusion peptide-binding blockers – biochemical, uHTS, fluorescence dequenching, […] (AID 1986)
# [11] = biological target: T3, Dual specificity protein phosphatase 3; assay: VHR1 phosphatase inhibitors, biochemical (AID 1878)
# [12] = biological target: T6, Carboxy-terminal domain RNA polymerase II polypeptide A small phosphatase 1 (Homo sapiens, UniProt Q9GZU7); assay: CTDSP1 inhibitors, concentration-response, biochemical, absorbance readout, ultra-high-throughput screen actives (AID 540297); format: functional
# T6 sequence (Q9GZU7 whole entry): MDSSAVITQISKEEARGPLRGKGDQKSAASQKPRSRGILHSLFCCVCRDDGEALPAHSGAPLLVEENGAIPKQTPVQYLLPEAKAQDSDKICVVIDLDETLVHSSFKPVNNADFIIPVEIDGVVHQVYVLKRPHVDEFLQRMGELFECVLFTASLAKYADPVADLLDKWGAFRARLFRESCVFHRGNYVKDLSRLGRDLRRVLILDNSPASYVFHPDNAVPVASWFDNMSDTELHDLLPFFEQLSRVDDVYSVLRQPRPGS
# [13] = biological target: T7, Low molecular weight phosphotyrosine protein phosphatase (Homo sapiens, UniProt P24666); format: functional; details: read-out: IC50_Mean
# T7 sequence (P24666 whole entry): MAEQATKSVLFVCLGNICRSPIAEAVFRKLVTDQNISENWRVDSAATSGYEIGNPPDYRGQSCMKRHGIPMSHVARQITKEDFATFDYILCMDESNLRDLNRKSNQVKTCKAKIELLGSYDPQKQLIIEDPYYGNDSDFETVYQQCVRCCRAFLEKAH
# [14] = biological target: T4, Tyrosine-protein phosphatase non-receptor type 22; assay: PTPN22 enzyme inhibitors – biochemical, fluorescence, LYP catalytic domain, selectivity assay for LMPTP inhibitor project, dose response (AID 652006); format: functional; details: read-out: IC50_Mean
# [15] = viability of uninfected HEp-2 cells – cell-based, HTS, cytotoxicity control for RSV inhibitor project, dose response (AID 2410); format: functional; details: human respiratory syncytial virus
# [16] = biological target: T7, Low molecular weight phosphotyrosine protein phosphatase; format: functional; details: read-out: IC50_Mean; remark: listed apart in the source
# [17] = biological target: T8, Dual specificity protein phosphatase 6 (Rattus norvegicus, UniProt Q64346); assay: inhibition of rat DUSP6 enzyme activity – biochemical, in vitro, primary screen (AID 425)
# T8 sequence (Q64346 whole entry): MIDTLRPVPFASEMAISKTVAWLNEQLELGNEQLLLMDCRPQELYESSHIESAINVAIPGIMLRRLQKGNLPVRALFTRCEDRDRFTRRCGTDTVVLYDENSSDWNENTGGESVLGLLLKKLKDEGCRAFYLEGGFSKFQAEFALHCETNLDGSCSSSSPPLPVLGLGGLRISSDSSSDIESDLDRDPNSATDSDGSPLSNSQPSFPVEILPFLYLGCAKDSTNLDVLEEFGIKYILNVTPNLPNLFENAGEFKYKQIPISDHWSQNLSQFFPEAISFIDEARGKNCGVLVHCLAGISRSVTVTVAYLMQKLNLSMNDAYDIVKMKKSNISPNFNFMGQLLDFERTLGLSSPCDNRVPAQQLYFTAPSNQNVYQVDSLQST
# [18] = biological target: T9, Tyrosine-protein phosphatase non-receptor type 5 (Homo sapiens, UniProt P54829); assay: PTPN5 enzyme inhibition – biochemical, fluorescence intensity, uHTS hits, confirmation (AID 602372); format: functional; details: read-out: IC50_Mean
# T9 sequence (P54829 whole entry): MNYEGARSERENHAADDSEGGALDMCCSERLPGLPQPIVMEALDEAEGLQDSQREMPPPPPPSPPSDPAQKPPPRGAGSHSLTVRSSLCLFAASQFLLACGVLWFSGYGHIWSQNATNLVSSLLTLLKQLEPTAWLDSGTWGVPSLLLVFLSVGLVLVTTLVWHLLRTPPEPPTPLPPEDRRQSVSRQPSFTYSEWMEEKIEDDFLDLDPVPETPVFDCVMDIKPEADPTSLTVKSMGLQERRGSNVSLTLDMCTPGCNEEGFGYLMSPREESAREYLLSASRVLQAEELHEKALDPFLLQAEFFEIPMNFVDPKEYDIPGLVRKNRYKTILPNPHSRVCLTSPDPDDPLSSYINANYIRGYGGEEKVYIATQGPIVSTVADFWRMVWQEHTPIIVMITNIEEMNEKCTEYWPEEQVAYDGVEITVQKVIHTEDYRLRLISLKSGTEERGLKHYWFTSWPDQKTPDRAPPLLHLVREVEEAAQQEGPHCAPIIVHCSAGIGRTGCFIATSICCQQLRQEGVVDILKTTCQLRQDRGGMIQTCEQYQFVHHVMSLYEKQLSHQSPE
# T3 sequence (P51452 whole entry): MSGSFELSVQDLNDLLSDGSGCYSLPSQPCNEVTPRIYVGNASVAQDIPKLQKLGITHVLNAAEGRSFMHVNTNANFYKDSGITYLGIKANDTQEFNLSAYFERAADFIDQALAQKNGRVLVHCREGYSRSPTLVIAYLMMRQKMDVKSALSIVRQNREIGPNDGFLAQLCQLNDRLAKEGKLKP
# Chain of Phosphomannomutase 2 (O15305 whole entry): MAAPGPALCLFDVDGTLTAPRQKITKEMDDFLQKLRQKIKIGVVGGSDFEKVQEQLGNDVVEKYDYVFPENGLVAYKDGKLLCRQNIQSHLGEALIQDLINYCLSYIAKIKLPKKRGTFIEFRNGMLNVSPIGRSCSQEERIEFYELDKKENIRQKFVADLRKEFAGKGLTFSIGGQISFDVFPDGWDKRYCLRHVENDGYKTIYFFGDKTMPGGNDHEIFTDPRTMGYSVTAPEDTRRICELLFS
# Chain of Envelope glycoprotein gp160 (Q6QLK5 whole entry, the tested form may be a part): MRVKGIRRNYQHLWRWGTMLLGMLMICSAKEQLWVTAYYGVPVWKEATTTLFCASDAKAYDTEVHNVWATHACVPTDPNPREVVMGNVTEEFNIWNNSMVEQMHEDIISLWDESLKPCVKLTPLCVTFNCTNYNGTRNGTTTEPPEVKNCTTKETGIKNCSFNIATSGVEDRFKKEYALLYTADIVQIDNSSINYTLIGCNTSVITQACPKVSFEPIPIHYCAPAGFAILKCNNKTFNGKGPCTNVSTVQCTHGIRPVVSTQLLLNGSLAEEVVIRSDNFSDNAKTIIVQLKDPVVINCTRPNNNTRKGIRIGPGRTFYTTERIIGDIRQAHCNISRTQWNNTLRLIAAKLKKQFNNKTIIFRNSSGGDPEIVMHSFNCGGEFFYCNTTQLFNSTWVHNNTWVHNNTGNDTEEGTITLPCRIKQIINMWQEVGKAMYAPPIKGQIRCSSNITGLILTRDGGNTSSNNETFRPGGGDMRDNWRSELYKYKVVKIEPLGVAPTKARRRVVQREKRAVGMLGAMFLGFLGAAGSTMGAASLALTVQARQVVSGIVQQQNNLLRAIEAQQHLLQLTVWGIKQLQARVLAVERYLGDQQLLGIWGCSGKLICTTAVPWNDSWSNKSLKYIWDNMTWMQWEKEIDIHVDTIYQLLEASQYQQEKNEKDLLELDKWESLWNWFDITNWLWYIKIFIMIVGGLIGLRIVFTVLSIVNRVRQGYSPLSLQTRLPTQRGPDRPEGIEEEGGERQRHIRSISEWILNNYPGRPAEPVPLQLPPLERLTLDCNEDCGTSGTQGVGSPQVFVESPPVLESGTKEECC
# Chain of Polyadenylate-binding protein 1 (P11940 whole entry): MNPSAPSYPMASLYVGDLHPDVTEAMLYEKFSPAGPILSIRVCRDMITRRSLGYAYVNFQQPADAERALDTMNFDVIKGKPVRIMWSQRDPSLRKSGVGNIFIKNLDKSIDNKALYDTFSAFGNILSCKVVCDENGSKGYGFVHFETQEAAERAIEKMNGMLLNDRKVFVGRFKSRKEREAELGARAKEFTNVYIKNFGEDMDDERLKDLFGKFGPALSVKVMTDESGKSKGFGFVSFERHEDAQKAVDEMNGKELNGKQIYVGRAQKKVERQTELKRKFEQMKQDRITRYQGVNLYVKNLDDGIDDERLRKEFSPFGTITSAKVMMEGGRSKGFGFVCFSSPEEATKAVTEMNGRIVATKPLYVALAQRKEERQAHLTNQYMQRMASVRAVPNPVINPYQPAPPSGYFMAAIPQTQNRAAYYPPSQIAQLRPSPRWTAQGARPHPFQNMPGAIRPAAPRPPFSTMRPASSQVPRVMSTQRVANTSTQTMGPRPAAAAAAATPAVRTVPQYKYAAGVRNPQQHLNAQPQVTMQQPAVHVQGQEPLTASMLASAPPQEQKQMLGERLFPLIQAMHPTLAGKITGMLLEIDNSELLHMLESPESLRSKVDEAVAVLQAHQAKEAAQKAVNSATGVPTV
structure (smiles),measurement,setting,value
COc1ccc(CCNC(=O)CSc2ccc(-c3ccco3)nn2)cc1,IC50,[1],70.3 µM (active)
same,IC50,[2],> 100 µM (inactive)
same,EC50,[3],> 195 µM (not active)
CCc1ccc(NC2Nc3cc(C)nn3S2)cc1 (stereo not given),IC50,[4],> 50 µM (inactive)
same,IC50,Phosphomannomutase 2,> 100 µM (inactive)
same,IC50,[5],8.43 µM (active)
CCOc1cc(/C=N/NC2=NC(=O)C(CC(=O)O)S2)ccc1OCc1ccc(Cl)cc1Cl (stereo not given),IC50,[6],2.42 µM (active)
same,IC50,[7],7.26 µM (active)
same,IC50,[8],8.44 µM (active)
same,IC50,[9],2.2 µM (active)
same,IC50,[10],13.6 µM (active)
same,IC50,cells,34.6 µM (active)
same,IC50,[11],5.27 µM (active)
same,IC50,[12],2.32 µM (active)
same,IC50,[13],12.1 µM (active)
same,IC50,[14],22.9 µM (inactive)
same,CC50,[15],20.8 µM (active)
same,IC50,[16],8.68 µM (active)
same,IC50,[17],25.6 µM (active)
same,IC50,[18],4.09 µM (active)
